System: emulsion-induced hyperlipidemic rats
Test: Test 1: antihyperlipidemic activity in emulsion-induced hyperlipidemic rats (serum Chol, HDL-Chol, liver weight)
Type: in vivo, male S.D. rats
Conditions: 3 days, vs control; for inhibition in vivo at 300 mg/kg / change in vivo at 300 mg/kg: Rattus norvegicus, po, 72 h, 300 mg/kg/day via stomach tube; for inhibition in vivo at 300 mg/kg: read-out: Reduction rate of serum Chol.; for Degree of hepatomegaly (change rate of the liver weight): liver weight per 100 g body weight, 300 mg/kg/day; for change in vivo at 300 mg/kg: read-out: Increase rate of serum HDL-Chol
Description: The antihyperlipidemic activity in emulsion-induced hyperlipidemic rats:
Male S.D. rats weighing 80-90 g (4 weeks old) were used. They were divided into groups of 5 to 6 rats each. The test compounds suspended in 0.5% CMC-Na(carboxymethyl cellulose sodium salt) were given to the rats in a daily dose of 4 ml/kg (i.e. 300 mg/kg of the test compounds) via stomach tube every 10:00 a.m. After 30 min., lipids emulsion having the following composition was orally given to the rats in an amount of 2.5 ml per rat.
Cholic acid sodium salt 10.0 g
During the experimental period of 3 days, the rats were fed on a standard commercial diet and water ad libitum. […] The total cholesterol and HDL cholesterol were measured.
The weight of the liver was measured. To the control group, only the aqueous CMC-Na solution and the lipids emulsion were given.
The fractionation of lipoproteins was conducted by a dextran sulfate-MgCl2 precipitation method.
Cholesterol in serum was measured by means of a cholesterol measuring kit (Cholesterol C-Test Wako, manufactured by Wako Junyaku Co., Ltd.), and cholesterol in HDL was measured by means of NC Hi-Set, manufactured by Nippon Chemiphar Co., Ltd.
Further, the reduction rate of Chol was calculated by the following equation. [formula] where A is the amount of serum Chol (mg/dl) of the control group, and B is the amount of serum Chol (mg/dl) of the group to which the therapeutic agent was administered.
Likewise, the increase rate of HDL-Chol was calculated by the following equation. [formula] where C is the amount of serum HDL-Chol (mg/dl) of the control group, and D is the amount of serum HDL-Chol (mg/dl) of the group to which the therapeutic agent was administered.
The degree of hepatomegaly (i.e. the change rate of the liver weight) was calculated by the following equation. [formula] where E is the liver weight (g) per 100 g of the body weight of the control group, and F is the liver weight (g) per 100 g of the body weight of the group to which the therapeutic agent was administered.

| Degree of hepatomegaly (change rate of the liver weight) | Structure (SMILES) | inhibition in vivo at 300 mg/kg | change in vivo at 300 mg/kg |
| --- | --- | --- | --- |
| – | CCCCC/C=C\C/C=C\CCCCCCCCOc1c2ncnc(SCCCC(=O)OCC)c2nn1C [Example 59, 2-Methyl-3-linoleyloxy-7-[3-(ethoxycarbonyl)propylthio]-pyrazolo[4,3-d]pyrimidine] | 68% | – |
| – | CCCCCCCOc1c2ncnc(SCC(=O)OCC)c2nn1-c1ccccc1 [Example 31, 2-Phenyl-3-n-heptyloxy-7-ethoxycarbonylmethylthio-pyrazolo[4,3-d]pyrimidine] | 51% | – |
| – | CCOC(=O)CSc1ncnc2c(OC3CCC(C4CCCCC4)CC3)n(C)nc12 (centres unmarked) [Example 34, 2-Methyl-3-(4-cyclohexyl-cyclohexyloxy)-7-ethoxycarbonylmethylthio-pyrazolo[4,3-d]pyrimidine] | 12% | – |
| – | CCCCC/C=C\C/C=C\CCCCCCCCOc1c2ncnc(SCCCCCC)c2nn1C [Example 55, 2-Methyl-3-linoleyloxy-7-n-hexylthio-pyrazolo[4,3-d]pyrimidine] | 58% | – |
| – | CCCCC/C=C\C/C=C\CCCCCCCCOc1c2ncnc(SC(C(=O)OCC)C(C)C)c2nn1C (centres unmarked) [Example 63, 2-Methyl-3-linoleyloxy-7-(1-ethoxycarbonyl-2-methylpropylthio)pyrazolo[4,3-d]pyrimidine] | 39% | – |
| – | CCCCCCCCCCCCCCCCOc1c2ncnc(SCCc3ccccc3)c2nn1C [Example 21, 2-Methyl-3-n-hexadecyloxy-7-phenethylthio-pyrazolo[d]pyrimidine] | 10% | – |
| – | CCOC(=O)CSc1ncnc2c(OCCCC(C)=O)n(C)nc12 [Example 46, 2-Methyl-3-(4-oxo-pentyloxy)-7-ethoxycarbonymethylthio-pyrazolo[4,3-d]pyrimidine] | 11% | – |
| – | CCOC(=O)CSc1ncnc2c(OCCOCc3ccc(C(C)(C)C)cc3)n(C)nc12 [Example 38, 2-Methyl-3-[2-(4-t-butylbenzyloxy)ethoxy]-7-ethoxycarbonylmethylthio-pyrazolo[4,3-d]pyrimidine] | 15% | – |
| – | CCCCCC/C=C/CCCCCCCCCCOc1c2ncnc(SCC(=O)OCC)c2nn1C [Example 72, 2-Methyl-3-vaccenyloxy-7-ethoxycarbonylmethylthio-pyrazolo[4,3-d]pyrimidine] | 58% | – |
| +5% | CCCCCCCCCCCCCCCCOc1c2ncnc(SCCCC(=O)OCC)c2nn1C [Example 17, 2-Methyl-3-n-hexadecyloxy-7-(3-ethoxycarbonylpropylthio)-pyrazolo[4,3-d]pyrimidine] | 49% | – |
| – | CCCCCCCCOc1c2ncnc(SC(C)(C)C(=O)OCC)c2nn1C [Example 27, 2-Methyl-3-n-octyloxy-7-(1-ethoxycarbonyl1-methyl-ethylthio)-pyrazolo[4,3-d]pyrimidine] | 16% | – |
| – | CCCCC/C=C\C/C=C\CCCCCCCCOc1c2ncnc(SCC(=O)OC)c2nn1C [Example 54, 2-Methyl-3-linoleyloxy-7-methoxycarbonylmethylthio-pyrazolo[4,3-d]pyrimidine] | 79% | – |
| – | CCCCCCCC/C=C/CCCCCCCCOc1c2ncnc(SCC(=O)OCC)c2nn1C [Example 70, 2-Methyl-3-elaidyloxy-7-ethoxycarbonylmethylthio-pyrazolo[4,3-d]pyrimidine] | 63% | – |
| – | CCCCC/C=C\C/C=C\CCCCCCCCOc1c2ncnc(SCc3ccccc3)c2nn1C [Example 62, 2-Methyl-linoleyloxy-7-benzylthio-pyrazolo[4,3-d]pyrimidine] | 17% | – |
| – | CCOC(=O)CSc1ncnc2c(OCCC(C)CCCC(C)CCCC(C)C)n(C)nc12 (centres unmarked) [Example 41, 2-Methyl-3-(3,7,11-trimethyl-dodecyloxy)-7-ethoxycarbonylmethylthio-pyrazolo[4,3-d]pyrimidine] | 48% | – |
| – | CCOC(=O)C(C)(C)Sc1ncnc2c(OCCO)n(C)nc12 [Example 30, 2-Methyl-3-(2-hydroxyethyloxy)-7-(1-ethoxycarbonyl-1-methyl-ethylthio) pyrazolo[4,3-d]pyrimidine] | 28% | – |
| – | CCCCCCCCCCCCCCCCOc1c2ncnc(SCCCCCCCCCCCCCCCC)c2nn1C [Example 24, 2-Methyl-3-n-hexadecyloxy-7-n-hexadecylthio-pyrazolo[4,3-d]pyrimidine] | 41% | – |

| Degree of hepatomegaly (change rate of the liver weight) | Structure (SMILES) | inhibition in vivo at 300 mg/kg | change in vivo at 300 mg/kg |
| --- | --- | --- | --- |
| – | CCCCC/C=C\C/C=C\CCCCCCCCOc1c2ncnc(SCCCCC(=O)OCC)c2nn1C [Example 60, 2-Methyl-3-linoleyloxy-7-[4-(ethoxycarbonyl)butylthio]-pyrazolo[4,3-d]pyrimidine] | 22% | – |
| – | CCCCCCCCCCCCCCCCOc1c2ncnc(SCC(=O)OCC)c2nn1-c1ccccc1 [Example 52, 2-Phenyl-3-n-hexadecyloxy-7-ethoxycarbonylmethylthio-pyrazolo[4,3-d]pyrimidine] | 30% | – |
| +2% | CCCCCCCCCCCCCCCOc1c2ncnc(SCC(=O)OCC)c2nn1C [Example 4, 2-Methyl-3-n-pentadecyloxy-7-ethoxycarbonylmethylthio-pyrazolo[4,3-d]pyrimidine] | 48% | 20% |
| – | CCCCCCCCCCCCCCCCOc1c2ncnc(SC3C(=O)OCC3C)c2nn1C (centres unmarked) [Example 25, 2-Methyl-3-n-hexadecyloxy-7-[4-(3-methyl-5-oxotetrahydrofuranyl)thio]-pyrazolo[4,3-d]pyrimidine] | 11% | – |
| – | CCOC(=O)CSc1ncnc2c(OCCC(C)CCCC(C)CCCC(C)CCCC(C)C)n(C)nc12 (centres unmarked) [Example 40, 2-Methyl-3-(3,7,11,15-tetramethylhexadecyloxy)-7-ethoxycarbonylmethylthio-pyrazolo[4,3-d]pyrimidine] | 50% | – |
| – | CCCCCCCCCCCCCCCCOc1c2ncnc(SC(C)(C)C(=O)OCC)c2nn1C [Example 26, 2-Methyl-3-n-hexadecyloxy-7-(1-ethoxycarbonyl-1-methyl-ethylthio)pyrazolo [4,3-d]pyrimidine] | 16% | – |
| -1% | CCCCCCCCCCCCCCCCCCOc1c2ncnc(SCC(=O)OCC)c2nn1C [Example 6, 2-Methyl-3-n-octadecyloxy-7-ethoxycarbonylmethylthio-pyrazolo[4,3-d]pyrimidine] | 31% | 9% |
| – | CCCCOCCOCCOc1c2ncnc(SCC(=O)OCC)c2nn1C [Example 39, 2-Methyl-3-(3,6-dioxadecyloxy)-7-ethoxycarbonylmethylthio-pyrazolo[4,3-d]pyrimidine] | 11% | – |
| 0% | CCCCCCCCCCCCCCCCOc1c2ncnc(SCCCCCC)c2nn1C [Example 23, 2-Methyl-3-n-hexadecyloxy-7-n-hexylthiopyrazolo[4,3-d]pyrimidine] | 39% | 30% |
| – | CCCCCCCCCCCCCCCCOc1c2ncnc(SCC(=O)OC)c2nn1C [Example 15, 2-Methyl-3-n-hexadecyloxy-7-methoxycarbonylmethylthio-pyrazolo[4,3-d]pyrimidine] | 53% | – |
| – | CCCCCCCCCCCCOc1c2ncnc(SC(C)(C)C(=O)OCC)c2nn1C [Example 28, 2-Methyl-3-n-dodecyloxy-7-(1-ethoxycarbonyl-1-methyl-ethylthio)-pyrazolo[4,3-d]pyrimidine] | 36% | – |
| – | CCCCC/C=C\C/C=C\CCCCCCCCOc1c2ncnc(SC(C)C(=O)OCC)c2nn1C (centres unmarked) [Example 58, 2-Methyl-3-linoleyloxy-7-(1-ethoxycarbonylethylthio)-pyrazolo[4,3-d]pyrimidine] | 32% | – |
| – | CCCCCCC#CCCOc1c2ncnc(SCC(=O)OCC)c2nn1C [Example 74, 2-Methyl-3-(3-decynyloxy)-7-ethoxycarbonylmethylthio-pyrazolo[4,3-d]pyrimidine] | 16% | – |
| – | C=CCSc1ncnc2c(OCCCCCCCCCCCCCCCC)n(C)nc12 [Example 22] | 11% | – |
| – | CCCCC/C=C\C/C=C\CCCCCCCCOc1c2ncnc(SCCCCCCCCCCC(=O)OCC)c2nn1C [Example 61] | 35% | – |
| – | CCOC(=O)CSc1ncnc2c(OCCOCc3ccc(CC)cc3)n(C)nc12 [Example 37, 2-Methyl-3-[2-(4-ethylbenzyloxy)ethoxy]7-ethoxycarbonylmethylthio-pyrazolo[4,3-d]pyrimidine] | 37% | – |
| – | CCCCCCCCCCCCCCCCOc1c2ncnc(SCc3ccc(Cl)c(Cl)c3)c2nn1C [Example 20, 2-Methyl-3-n-hexadecyloxy-7-(3,4-dichlorophenylmethylthio)-pyrazolo[4,3-d]pyrimidine] | 19% | – |

— US4654348A, “Pyrazolo[4,3-d]pyrimidine derivative, process for its production, antihyperlipidemic agent containing it, its intermediate, and process for the production of the intermediate” (Nissan Chemical Industries Ltd., priority 1984, dated 1987)
